Test results reported in the SangsterLogP compilation.

Assay: method code SF-AS, from DOI: 10.1584/jpestics.13.587

Row | logP | Structure (SMILES)
1 | 2.68 | C#CC(C)OC(=O)Nc1ccc(OCC)c(OCC)c1 (stereo unspecified)

Assay: not given

Row | logP | Structure (SMILES)
2 | 2.27 | CCOc1ccc(NC(=O)OCCF)cc1OCC
3 | 2.62 | CCOc1ccc(NC(=O)OCCCl)cc1OCC
4 | 2.59 | CCOc1ccc(NC(=O)OC(C)CF)cc1OCC (stereo unspecified)
5 | 2.78 | CCOc1ccc(NC(=O)OCCBr)cc1OCC
6 | 5.06 | CCCCCCC(C)OC(=O)Nc1ccc(OCC)c(OCC)c1 (stereo unspecified)
7 | 2.54 | C#CCCOC(=O)Nc1ccc(OCC)c(OCC)c1
8 | 3.37 | C=CCC(C)OC(=O)Nc1ccc(OCC)c(OCC)c1 (stereo unspecified)
9 | 2.86 | C#CCC(C)OC(=O)Nc1ccc(OCC)c(OCC)c1 (stereo unspecified)
10 | 3.42 | C=CC(CC)OC(=O)Nc1ccc(OCC)c(OCC)c1 (stereo unspecified)
11 | 3.07 | C#CC(CC)OC(=O)Nc1ccc(OCC)c(OCC)c1 (stereo unspecified)
12 | 3.56 | CCOc1ccc(NC(=O)OC(C)c2ccccc2)cc1OCC (stereo unspecified)
13 | 3.96 | CCOc1ccc(NC(=O)OC(C)C(Cl)(Cl)Cl)cc1OCC (stereo unspecified)
14 | 2.97 | CCOc1ccc(NC(=O)OC(C)CCl)cc1OCC (stereo unspecified)
15 | 3.17 | CCOc1ccc(NC(=O)OC(C)(C)C)cc1OCC
16 | 2.56 | CCOc1ccc(NC(=O)OC(C)COC)cc1OCC (stereo unspecified)
